Test results from patent US7932246B2, “Histone deacetylase inhibitors” (Chroma Therapeutics Ltd., priority 2005, dated 2011).

Legend:
[1] = target: histone deacetylase activity (HeLa nuclear extract); experiment: HDAC fluorescent activity assay (Biomol, Fluor de Lys substrate); type: biochemical; conditions: IC50 range
Description: The ability of compounds to inhibit histone deacetylase activities was measured using the commercially available HDAC fluorescent activity assay from Biomol. In brief, the Fluor de Lys™ substrate, a lysine with an epsilon-amino acetylation, is incubated with the source of histone deacetylase activity (HeLa nuclear extract) in the presence or absence of inhibitor. Deacetylation of the substrate sensitises the substrate to Fluor de Lys™ developer, which generates a fluorophore.
Data are expressed as a percentage of the control, measured in the absence of inhibitor, with background signal being subtracted from all samples, as follows:— % activity=[(S^i−B)/(S^o−B)]×100 where S^i is the signal in the presence of substrate, enzyme and inhibitor, S^o is the signal in the presence of substrate, enzyme and the vehicle in which the inhibitor is dissolved, and B is the background signal measured in the absence of enzyme.
Histone deacetylase activity from crude nuclear extract derived from HeLa cells was used for screening. The preparation, purchased from 4C (Seneffe, Belgium), was prepared from HeLa cells harvested whilst in exponential growth phase. The nuclear extract is prepared according to Dignam JD1983 Nucl. Acid. […] The final buffer composition was 20 mM Hepes, 100 mM KCl, 0.2 mM EDTA, 0.5 mM DTT, 0.2 mM PMSF and 20% (v/v) glycerol.

HeLa cells = experiment: HeLa cell inhibition assay (SRB cell viability); type: cell-based; conditions: Homo sapiens, HeLa, 72 h, IC50 range
Description: HeLa cells growing in log phase were harvested and seeded at 1000 cells/well (200 μl final volume) into 96-well tissue culture plates. Following 24 h of cell growth cells were treated with compounds (final concentration of 20 μM). Plates were then re-incubated for a further 72 h before a sulphorhodamine B (SRB) cell viability assay was conducted according to Skehan 1990 J Natl Canc Inst 82, 1107-1112.
(§1) Data were expressed as a percentage inhibition of the control, measured in the absence of inhibitor, as follows:— % inhibition=100−[(S^i/S^o)×100] where S^i is the signal in the presence of inhibitor and S^o is the signal in the presence of DMSO.
IC50 values were determined by non-linear regression analysis, after fitting the results of eight data points to the equation for sigmoidal dose response with variable slope (% activity against log concentration of compound), using Graphpad Prism software.
(§2) IC50 results were allocated to one of 3 ranges as follows: […]

U937 = U937 cell inhibition assay (WST-1 cell viability); type: cell-based; conditions: Homo sapiens, U-937; U937 cells, 72-96 h, WST-1 assay, IC50 range
Description: (§3) Cancer cell lines (U937 and HUT) growing in log phase were harvested and seeded at 1000-2000 cells/well (100 μl final volume) into 96-well tissue culture plates. Following 24 h of growth cells were treated with compound. Plates were then re-incubated for a further 72-96 h before a WST-1 cell viability assay was conducted according to the suppliers (Roche Applied Science) instructions.
as §1
(§4) Dose response curves were generated from 8 concentrations (top final concentration 10 μM, with 3-fold dilutions), using 6 replicates.
(§5) IC50 values were determined by non-linear regression analysis, after fitting the results to the equation for sigmoidal dose response with variable slope (% activity against log concentration of compound), using Graphpad Prism software.
as §2

HUT = HUT cell inhibition assay (WST-1 cell viability); type: cell-based; conditions: HUT cells, 72-96 h, WST-1 assay, IC50 range
Description: as §3, §1, §4, §5, §2

Structure (SMILES) | IC50 [1] [nM] | IC50 (HeLa cells) [nM] | IC50 (U937) [nM] | IC50 (HUT) [nM]
O=C(NO)c1cnc(N2CC3C(CNCc4ccc(Cl)cc4)C3C2)nc1 (centres unmarked) [Example 73, N-Hydroxy 2-(6-{[(4-chlorobenzyl)amino]methyl}-3-azabicyclo[3.1.0]hex-3-yl)pyrimidine-5-carboxamide] | < 100 | 331 to 3300 | 331 to 3300 | < 330
O=C(Cc1ccc(-c2ccccc2)cc1)NC1C2CN(c3ncc(C(=O)NO)cn3)CC21 (centres unmarked) [Example 19, N-Hydroxy 2-[6-(2-biphenyl-4-yl-acetylamino)-3-azabicyclo[3.1.0]hex-3-yl]pyrimidine-5-carboxamide] | < 100 | < 330 | < 330 | < 330
O=C(NO)c1cnc(N2CC3C(C2)C3NC(=O)c2ccc3ccccc3c2)nc1 (centres unmarked) [Example 5, N-Hydroxy 2-{6-[(naphthalene-2-carbonyl)amino]-3-aza-bicyclo[3.1.0]hex-3-yl}pyrimidine-5-carboxamide] | < 100 | 331 to 3300 | 331 to 3300 | < 330
O=C(NO)c1cnc(N2CCC3(CC2)CCN(S(=O)(=O)c2ccc4ccccc4c2)CC3)nc1 [Example 86, N-Hydroxy 2-[9-(naphthalene-2-sulfonyl)-3,9-diaza-spiro[5.5]undec-3-yl]pyrimidine-5-carboxamide] | 101 to 1000 | > 3300 | 331 to 3300 | 331 to 3300
O=C(NO)c1cnc(N2CC(NS(=O)(=O)c3ccc4ccccc4c3)C2)nc1 [Example 70, N-Hydroxy 2-{3-[(2-naphthylsulfonyl)amino]azetidin-1-yl}pyrimidine-5-carboxamide] | < 100 | > 3300 | > 3300 | 331 to 3300
O=C(NO)c1cnc(N2CC3C(C2)C3NCc2csc3ccccc23)nc1 (centres unmarked) [Example 32, N-Hydroxy 2-{6-[(1-benzothien-3-ylmethyl)amino]-3-azabicyclo[3.1.0]hex-3-yl}pyrimidine-5-carboxamide] | < 100 | < 330 | < 330 | < 330
COc1ccc(CN2CC3CN(c4ncc(C(=O)NO)cn4)CC3C2)cc1 (centres unmarked) [Example 84, N-Hydroxy 2-[5-(4-methoxybenzyl)hexahydropyrrolo[3,4-c]pyrrol-2(1H)-yl]pyrimidine-5-carboxamide] | < 100 | 331 to 3300 | 331 to 3300 | < 330
CC(CCNC1C2CN(c3ncc(C(=O)NO)cn3)CC21)c1ccccc1 (centres unmarked) [Example 29, N-Hydroxy 2-[6-(3-phenylbutylamino)-3-aza-bicyclo[3.1.0]hex-3-yl]pyrimidine-5-carboxamide] | < 100 | < 330 | < 330 | < 330
O=C(NO)c1cnc(N2CC3C(C2)C3NCc2cccc(-c3ccccc3)c2)nc1 (centres unmarked) [Example 37, N-Hydroxy 2-{6-[(biphenyl-3-ylmethyl)-amino]-3-aza-bicyclo[3.1.0]hex-3-yl}pyrimidine-5-carboxamide] | < 100 | < 330 | < 330 | < 330
O=C(Cc1ccc(N2CCCS2(=O)=O)cc1)NC1C2CN(c3ncc(C(=O)NO)cn3)CC21 (centres unmarked) [Example 6, N-Hydroxy 2-(6-{2-[4-(1,1-dioxoisothiazolidin-2-yl)phenyl]acetylamino}-3-azabicyclo[3.1.0]hex-3-yl)pyrimidine-5-carboxamide] | < 100 | > 3300 | > 3300 | > 3300
O=C(NO)c1cnc(N2CC3C(C2)C3N(Cc2ccc3ccccc3c2)Cc2ccc3ccccc3c2)nc1 (centres unmarked) [Example 57, N-Hydroxy 2-[6-(bisnaphthalen-2-ylmethylamino)-3-azabicyclo[3.1.0]hex-3-yl]pyrimidine-5-carboxamide] | > 1000 | > 3300 | > 3300 | > 3300
O=C(NO)c1cnc(NC2C3CN(S(=O)(=O)c4ccc5ccccc5c4)CC32)nc1 (centres unmarked) [Example 69, N-Hydroxy 2-{[3-(2-naphthylsulfonyl)-3-azabicyclo[3.1.0]hex-6-yl]amino}pyrimidine-5-carboxamide] | < 100 | > 3300 | > 3300 | 331 to 3300
CN(C1C2CN(c3ncc(C(=O)NO)cn3)CC21)S(=O)(=O)c1ccc2ccccc2c1 (centres unmarked) [Example 45, N-Hydroxy 2-{6-[methyl(naphthalene-2-sulfonyl)-amino]-3-aza-bicyclo[3.1.0]hex-3-yl}pyrimidine-5-carboxamide] | < 100 | 331 to 3300 | 331 to 3300 | < 330
O=C(NO)c1cnc(N2CC3C(C2)C3NS(=O)(=O)c2ccc(OC(F)(F)F)cc2)nc1 (centres unmarked) [Example 4, N-Hydroxy 2-(6-{[(4-trifluoromethoxyphenyl)sulfonyl]amino}-3-azabicyclo[3.1.0]hex-3-yl)pyrimidine-5-carboxamide] | < 100 | 331 to 3300 | < 330 | < 330
O=C(NO)c1cnc(N2CC3C(C2)C3N(CCN2CCCC2=O)S(=O)(=O)c2ccc(OC(F)(F)F)cc2)nc1 (centres unmarked) [Example 55, N-Hydroxy 2-{6-[[2-(2-oxopyrrolidin-1-yl)ethyl]-(4-trifluoromethoxybenzenesulfonyl)amino]-3-aza-bicyclo[3.1.0]hex-3-yl}pyrimidine-5-carboxamide] | < 100 | > 3300 | 331 to 3300 | 331 to 3300
O=C(NO)c1cnc(N2CC3C(C2)C3N(CCN2CCCC2=O)S(=O)(=O)c2ccc3ccccc3c2)nc1 (centres unmarked) [Example 48, N-Hydroxy 2-(6-{(naphthalene-2-sulfonyl)-[2-(2-oxopyrrolidin-1-yl)ethyl]amino}-3-aza-bicyclo[3.1.0]hex-3-yl)pyrimidine-5-carboxamide] | < 100 | 331 to 3300 | 331 to 3300 | 331 to 3300
O=C(NO)c1cnc(N2CC3C(C2)C3NCc2ccc3ccccc3n2)nc1 (centres unmarked) [Example 43, N-Hydroxy 2-{6-[(quinolin-2-ylmethyl)amino]-3-azabicyclo[3.1.0]hex-3-yl}pyrimidine-5-carboxamide] | < 100 | < 330 | < 330 | < 330
O=C(NO)c1cnc(N2CC3C(C2)C3NCCc2ccccc2)nc1 (centres unmarked) [Example 38, N-Hydroxy 2-{6-[(2-phenylethyl)amino]-3-azabicyclo[3.1.0]hex-3-yl}pyrimidine-5-carboxamide] | < 100 | 331 to 3300 | 331 to 3300 | < 330
O=C(NO)c1cnc(N2CC3C(C2)C3NCc2cc(C(F)(F)F)cc(C(F)(F)F)c2)nc1 (centres unmarked) [Example 35, N-Hydroxy 2-{6-[(3,5-bistrifluoromethylbenzyl)amino]-3-azabicyclo[3.1.0]hex-3-yl}pyrimidine-5-carboxamide] | < 100 | < 330 | < 330 | < 330
O=C(NO)c1cnc(N2CC3C(C2)C3N(CCN2CCCCC2)S(=O)(=O)c2ccc3ccccc3c2)nc1 (centres unmarked) [Example 53, N-Hydroxy 2-{6-[(naphthalene-2-sulfonyl)-(2-piperidin-1-ylethyl)amino]-3-azabicyclo[3.1.0]hex-3-yl}pyrimidine-5-carboxamide] | < 100 | < 330 | < 330 | < 330
O=C(NO)c1cnc(N2CC3C(C2)C3NC(c2ccccc2)C(F)(F)F)nc1 (centres unmarked) [Example 40, N-Hydroxy 2-{6-[(2,2,2-trifluoro-1-phenylethyl)amino]-3-azabicyclo[3.1.0]hex-3-yl}pyrimidine-5-carboxamide] | < 100 | 331 to 3300 | 331 to 3300 | < 330
O=C(NO)c1cnc(N2CC3C(C2)C3NC(=O)C2(c3ccccc3)CC2)nc1 (centres unmarked) [Example 9, N-Hydroxy 2-(6-{[(1-phenylcyclopropyl)carbonyl]amino}-3-azabicyclo[3.1.0]hex-3-yl)pyrimidine-5-carboxamide] | < 100 | 331 to 3300 | 331 to 3300 | 331 to 3300
O=C(NO)c1cnc(N2CC3C(C2)C3NCc2ccc(C(F)(F)F)cc2)nc1 (centres unmarked) [Example 42] | < 100 | 331 to 3300 | 331 to 3300 | < 330
